pIC50: −log10 of the molar value.
Target: Cdk9/cyclinT1 (Homo sapiens (Human), UniProt P50750)
Test: Cdk9/CyclinT1 IMAP Protocol (fluorescence polarization kinase assay)
Assay type: biochemical
Conditions: Table 2; generated using one of the two Cdk9/cyclinT1 assays (IMAP or Alpha Screen), not specified which; unit inferred
How it was run: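 Reaction used 4 nM Cdk9/cyclinT1, 100 nM 5TAMRA-cdk7tide peptide and 6 uM ATP in 100 mM Tris pH 7.2 with MgCl2, 0.01% Tween-20, 1 mM DTT and 2.5% DMSO, running 4.5 h. Phosphopeptide was captured by IMAP binding reagent for >1 h, then read by fluorescence polarization (ex 531/em 595 nm).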

Sequence of Cdk9/cyclinT1 (P50750 whole entry): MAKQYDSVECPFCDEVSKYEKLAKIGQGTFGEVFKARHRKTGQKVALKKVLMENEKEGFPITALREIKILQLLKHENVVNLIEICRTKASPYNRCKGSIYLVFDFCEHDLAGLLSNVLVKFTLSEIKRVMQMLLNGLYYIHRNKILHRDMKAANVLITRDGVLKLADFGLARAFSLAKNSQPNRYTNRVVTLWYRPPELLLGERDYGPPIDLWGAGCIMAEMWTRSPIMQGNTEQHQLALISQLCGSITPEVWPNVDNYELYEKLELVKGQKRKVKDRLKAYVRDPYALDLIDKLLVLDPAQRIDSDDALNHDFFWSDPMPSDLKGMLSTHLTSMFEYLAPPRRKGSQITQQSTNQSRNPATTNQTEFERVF
Sequence of Cdk9/cyclinT1 (O60563 whole entry partner): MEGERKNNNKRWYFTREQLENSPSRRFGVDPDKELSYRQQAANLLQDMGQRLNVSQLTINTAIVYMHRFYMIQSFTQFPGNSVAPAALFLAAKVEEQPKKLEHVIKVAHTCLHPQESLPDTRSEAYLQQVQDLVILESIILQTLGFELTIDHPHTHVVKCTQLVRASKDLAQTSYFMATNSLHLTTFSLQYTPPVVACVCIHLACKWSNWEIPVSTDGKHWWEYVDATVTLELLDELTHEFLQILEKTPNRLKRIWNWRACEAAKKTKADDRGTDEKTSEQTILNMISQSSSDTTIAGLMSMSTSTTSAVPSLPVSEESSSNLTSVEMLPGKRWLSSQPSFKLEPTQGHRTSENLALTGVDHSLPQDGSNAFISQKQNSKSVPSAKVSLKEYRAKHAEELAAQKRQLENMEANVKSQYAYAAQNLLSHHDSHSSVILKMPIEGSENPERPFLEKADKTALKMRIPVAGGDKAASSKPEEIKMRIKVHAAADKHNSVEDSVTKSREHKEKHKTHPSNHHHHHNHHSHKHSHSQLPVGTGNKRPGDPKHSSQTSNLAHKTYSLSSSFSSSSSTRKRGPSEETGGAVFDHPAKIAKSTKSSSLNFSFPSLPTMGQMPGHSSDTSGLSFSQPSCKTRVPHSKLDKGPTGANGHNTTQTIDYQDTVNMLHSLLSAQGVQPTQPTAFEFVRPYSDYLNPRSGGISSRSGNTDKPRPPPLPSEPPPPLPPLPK

SMILES | pIC50
N[C@H]1CC[C@H](Nc2cc(-c3nc(NCC4CCOCC4)ccc3Cl)c(F)cn2)CC1 [Compound 260, N2′-(trans-4-aminocyclohexyl)-3-chloro-5′-fluoro-N6-((tetrahydro-2H-pyran-4-yl)methyl)-2,4′-bipyridine-2′,6-diamine] | 8.10
N[C@H]1CC[C@H](Nc2cc(-c3cncc(NC[C@H]4CCCOC4)n3)c(Cl)cn2)CC1 [Compound 261] | 8.10
N[C@H]1CC[C@H](Nc2cc(-c3cncc(NC[C@@H]4CCCOC4)n3)c(Cl)cn2)CC1 [Compound 262] | 8.10
O[C@H]1CC[C@H](Nc2cc(-c3cncc(NC[C@H]4CCCOC4)n3)c(Cl)cn2)CC1 [Compound 263] | 8.10
O[C@H]1CC[C@H](Nc2cc(-c3cncc(NC[C@@H]4CCCOC4)n3)c(Cl)cn2)CC1 [Compound 264] | 8.10
N[C@H]1CC[C@H](Nc2cc(-c3nc(NCC4CCOCC4)c(Cl)cc3Cl)c(Cl)cn2)CC1 [Compound 266, N2′-(trans-4-aminocyclohexyl)-3,5,5′-trichloro-N6-((tetrahydro-2H-pyran-4-yl)methyl)-2,4′-bipyridine-2′,6-diamine] | 8.10
N[C@H]1CC[C@H](Nc2cc(-c3ccc(F)c(NCC4CCOCC4)n3)c(Cl)cn2)CC1 [Compound 269, N2′-(trans-4-aminocyclohexyl)-5′-chloro-5-fluoro-N6-((tetrahydro-2H-pyran-4-yl)methyl)-2,4′-bipyridine-2′,6-diamine] | 8.10
Clc1cnc(N[C@H]2CC[C@H](NCC3COCCO3)CC2)cc1-c1nc(NCC2CCOCC2)ccc1Cl (some centres unmarked) [Compound 271] | 8.10
COCCN(C)[C@H]1CC[C@H](Nc2cc(-c3nc(NCC4CCOCC4)ccc3Cl)c(Cl)cn2)CC1 [Compound 272, 3,5′-dichloro-N2′-(trans-4-((2-methoxyethyl)(methyl)amino)cyclohexyl)-N6-((tetrahydro-2H-pyran-4-yl)methyl)-2,4′-bipyridine-2′,6-diamine] | 8.10
Clc1ccc(NCC2CCOCC2)nc1-c1ccnc(N[C@H]2CC[C@H](NC[C@H]3CCCO3)CC2)c1 [Compound 273] | 7.64
COCCN[C@H]1CC[C@H](Nc2cc(-c3nc(NCC4CCOCC4)ccc3Cl)ccn2)CC1 [Compound 274] | 7.42
O[C@H]1CC[C@@H](Nc2cc(-c3cccc(NCC4CCOCC4)n3)c(Cl)cn2)CC1 [Compound 275] | 6.83
COCCN[C@H]1CC[C@H](Nc2cc(-c3cccc(NCC4CCOCC4)n3)c(Cl)cn2)CC1 [Compound 276] | 8.05
Clc1cnc(N[C@H]2CC[C@H](NC[C@H]3CCCO3)CC2)cc1-c1cccc(NCC2CCOCC2)n1 [Compound 277] | 8.10
Clc1cnc(N[C@H]2CC[C@H](NC[C@@H]3CCCO3)CC2)cc1-c1cccc(NCC2CCOCC2)n1 [Compound 278] | 8.10
COCCN(C)[C@H]1CC[C@H](Nc2cc(-c3cccc(NCC4CCOCC4)n3)c(Cl)cn2)CC1 [Compound 279] | 7.88
Fc1ccc(-c2cc(N[C@H]3CC[C@H](NC4COC4)CC3)ncc2Cl)nc1NCC1CCOCC1 [Compound 281] | 7.21
C[C@@H]1CC(CNc2cccc(-c3cc(N[C@H]4CC[C@H](N)CC4)ncc3Cl)n2)C[C@H](C)O1 (stereo partly drawn) [Compound 284, N2′-(trans-4-aminocyclohexyl)-5′-chloro-N6-(((2R,6S)-2,6-dimethyltetrahydro-2H-pyran-4-yl)methyl)-2,4′-bipyridine-2′,6-diamine] | 9.00

SMILES | pIC50
COCCN[C@H]1CC[C@H](Nc2cc(-c3cccc(NCC4C[C@@H](C)O[C@@H](C)C4)n3)c(Cl)cn2)CC1 (stereo partly drawn) [Compound 285, 5′-chloro-N6-(((2R,6S)-2,6-dimethyltetrahydro-2H-pyran-4-yl)methyl)-N2′-(trans-4-(2-methoxyethylamino)cyclohexyl)-2,4′-bipyridine-2′,6-diamine] | 8.70
N[C@H]1CC[C@H](Nc2cc(-c3nc(NCC4CCOCC4)ccc3Br)c(Cl)cn2)CC1 [Compound 286, N2′-(trans-4-aminocyclohexyl)-3-bromo-5′-chloro-N6-((tetrahydro-2H-pyran-4-yl)methyl)-2,4′-bipyridine-2′,6-diamine] | 9.00
O[C@@H](CN[C@H]1CC[C@H](Nc2cc(-c3nc(NCC4CCOCC4)ccc3Cl)c(Cl)cn2)CC1)C(F)(F)F [Compound 290] | 8.70
COCCN[C@H]1CC[C@H](Nc2cc(-c3nc(NCC4CCOCC4)ccc3Br)c(Cl)cn2)CC1 [Compound 292, 3-bromo-5′-chloro-N2′-(trans-4-(2-methoxyethylamino)cyclohexyl)-N6-((tetrahydro-2H-pyran-4-yl)methyl)-2,4′-bipyridine-2′,6-diamine] | 8.70
COC[C@@H](C)N[C@H]1CC[C@H](Nc2cc(-c3nc(NCC4CCOCC4)ccc3F)c(Cl)cn2)CC1 [Compound 293] | 9.00
COC[C@@H](C)N[C@H]1CC[C@H](Nc2cc(-c3ccc(F)c(NCC4CCOCC4)n3)c(Cl)cn2)CC1 [Compound 294] | 9.00
CC1(C)CC(CNc2ccc(Cl)c(-c3cc(N[C@H]4CC[C@H](O)CC4)ncc3Cl)n2)CCO1 (stereo partly drawn) [Compound 297, trans-4-(3,5′-dichloro-6-((2,2-dimethyltetrahydro-2H-pyran-4-yl)methyl)amino-2,4′-bipyridin-2′-yl-amino)cyclohexanol] | 9.00
CC1(C)CC(CNc2ccc(Cl)c(-c3cc(N[C@H]4CC[C@H](NC[C@H](O)C(F)(F)F)CC4)ncc3Cl)n2)CCO1 (stereo partly drawn) [Compound 298, (2S)-3-(trans-4-(3,5′-dichloro-6-((2,2-dimethyltetrahydro-2H-pyran-4-yl)methyl)amino-2,4′-bipyridin-2′-yl-amino)cyclohexylamino)-1,1,1-trifluoropropan-2-ol] | 9.00
CC1(C)CC(CNc2ccc(Cl)c(-c3cc(N[C@H]4CC[C@H](NC[C@@H](O)C(F)(F)F)CC4)ncc3Cl)n2)CCO1 (some centres unmarked) [Compound 299] | 9.00
Clc1cnc(NC[C@@H]2CCCNC2)cc1-c1cccc(NCC2CCOCC2)n1 [Compound 300] | 6.66
FC(F)(F)OCCN[C@H]1CC[C@H](Nc2cc(-c3cccc(NCC4CCOCC4)n3)c(Cl)cn2)CC1 [Compound 301, 5′-chloro-N6-((tetrahydro-2H-pyran-4-yl)methyl)-N2′-(trans-4-(2-(trifluoromethoxy)ethylamino)cyclohexyl)-2,4′-bipyridine-2′,6-diamine] | 8.52
Clc1cnc(NC[C@H]2CCCN2)cc1-c1cccc(NCC2CCOCC2)n1 [Compound 303] | 5.89
Clc1cnc(NC[C@@H]2CCCN2)cc1-c1cccc(NCC2CCOCC2)n1 [Compound 304] | 5.21
COC[C@@H](C)N[C@H]1CC[C@H](Nc2cc(-c3cccc(NCC4(OC)CCOCC4)n3)c(Cl)cn2)CC1 [Compound 305] | 9.00
COC[C@@H](C)N[C@H]1CC[C@H](Nc2cc(-c3cccc(NCC4(OC)CCCCC4)n3)c(Cl)cn2)CC1 [Compound 306] | 8.05
COC[C@@H](C)N[C@H]1CC[C@H](Nc2cc(-c3cccc(NCC4COC(C)(C)CO4)n3)c(Cl)cn2)CC1 (stereo partly drawn) [Compound 307, 5′-chloro-N6-((5,5-dimethyl-1,4-dioxan-2-yl)methyl)-N2′-(trans-4-((R)-1-methoxypropan-2-yl-amino)cyclohexyl)-2,4′-bipyridine-2′,6-diamine] | 8.10
COC[C@@H](C)N[C@H]1CC[C@H](Nc2cc(-c3ccc(C(F)(F)F)c(NCC4CCOCC4)n3)c(Cl)cn2)CC1 [Compound 308] | 9.00

— US8778951B2, “Heteroaryl compounds and their uses” (Novartis AG, priority 2009, dated 2014)
